In ChEMBL document CHEMBL3243975 (J Med Chem, 1978):

Columns and labels:
Rattus norvegicus [1] = organism: Rattus norvegicus; assay: Narcotic agonist activity in rat by hot plate test; type: functional
Rattus norvegicus [2] = organism: Rattus norvegicus; assay: Narcotic agonist activity in rat by writhing test; type: functional
Mus musculus [3] = organism: Mus musculus; assay: Narcotic agonist activity in mouse by writhing test; type: functional
Mus musculus [4] = assay: Narcotic antagonist activity in sc dosed mouse assessed as inhibition of oxymorphone-induced nacrosis; type: functional
Rattus norvegicus [5] = assay: Narcotic antagonist activity in sc dosed rat assessed as inhibition of oxymorphone-induced straub tail effect; type: functional
Sus scrofa [6] = organism: Sus scrofa; assay: Agonist activity at pig ileum opioid receptor; type: tissue-based
Sus scrofa [7] = organism: Sus scrofa; assay: Binding affinity to pig ileum opioid receptor; type: tissue-based

| Compound | ED50 (Rattus norvegicus [1]) [mg/kg] | ED50 (Rattus norvegicus [2]) [mg/kg] | ED50 (Mus musculus [3]) [mg/kg] | ED50 (Mus musculus [4]) [mg/kg] | ED50 (Rattus norvegicus [5]) [mg/kg] | ID50 (Sus scrofa [6]) [µM] | Ke (Sus scrofa [7]) [nM] |
| --- | --- | --- | --- | --- | --- | --- | --- |
| O=C1CC[C@@]2(O)[C@H]3Cc4ccc(O)c5c4[C@@]2(CCN3CCc2ccccc2)[C@H]1O5 | 0.014 | – | – | – | – | – | – |
| C=CCN1CC[C@]23c4c5ccc(O)c4O[C@H]2C(=O)CC[C@@]3(O)[C@H]1C5 [NALOXONE] | – | > 100 | > 100 | 0.14 | 0.051 | – | – |
| CC(C)=CCN1CC[C@]23c4c5ccc(O)c4O[C@H]2C(=O)CC[C@@]3(O)[C@H]1C5 [NALMEXONE] | 10.7 | 0.74 | 2 | 5.6 | 1.4 | 0.4 | 43 |
| C=CCN1CC[C@]23c4c5ccc(O)c4O[C@H]2[C@@H](O)C=C[C@H]3[C@H]1C5 [NALORPHINE] | – | 1 | – | 1.45 | 0.9 | 0.0243 | – |
| CN1CC[C@]23c4c5ccc(O)c4O[C@H]2C(=O)CC[C@@]3(O)[C@H]1C5 [OXYMORPHONE] | 0.17 | 0.02 | 0.046 | – | – | 0.0121 | 11.2 |
| O=C1CC[C@@]2(O)[C@H]3Cc4ccc(O)c5c4[C@@]2(CCN3CC2CC2)[C@H]1O5 [NALTREXONE] | – | 0.14 | > 100 | 0.047 | 0.023 | > 0.85 | 0.38 |
| O=C1CC[C@@]2(O)[C@H]3Cc4ccc(O)c5c4[C@@]2(CCN3CC2CCC2)[C@H]1O5 | – | 0.06 | 0.39 | 0.57 | 0.19 | 0.06 | 3 |
| CN1CC[C@]23c4c5ccc(O)c4O[C@H]2[C@@H](O)C=C[C@H]3[C@H]1C5 [MORPHINE] | – | 0.26 | 0.8 | – | – | – | – |
